For 78 compounds, RP-LC retention time results are on record in the METLIN SMRT retention time set (Domingo-Almenara et al. 2019).

The data set can be described thus: gradient 5% acetonitrile 3 min, to 50% in 2 min, to 85% in 15 min, held 3 min, 100 µL/min. Particulars: column: Zorbax Extend-C18 2.1 x 50 mm; eluents: water / acetonitrile, 0.1% formic acid. The procedure, abridged:
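Over 3 months, pure standards in mixtures of ~100 molecules were run by HPLC coupled to a quadrupole time-of-flight mass spectrometer in positive and negative ionization mode. The column was a Zorbax Extend-C18 (2.1 × 50 mm, 1.8 μm) at 100 μL/min, eluted with water and acetonitrile each holding 0.1% formic acid, with 40 μL dead and 900 μL dwell volumes. Retention time was determined from adduct peaks chosen by software and checked manually.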
In turn, `CC(C)n1cnnc1C1CCN(C(=O)Cc2c[nH]c3ccccc23)CC1` registered an RP-LC retention time of 626 s.

In turn, `COCCc1nncn1C1CCN(S(=O)(=O)c2ccc(Cl)c(C)c2)CC1` yielded an RP-LC retention time of 769 s.

In turn, `CCc1ccc(N2C(=O)C3N=NN(c4ccc(Br)c(C)c4)C3C2=O)cc1` (stereo not drawn) displayed an RP-LC retention time of 1190 s.

On to `CC(=O)Nc1cc(-c2nc(-c3ccc4oc(-c5ccccc5)nc4c3)no2)ccc1C`, for which the RP-LC retention time was determined as 738 s.

Consider `CC(C)CCNC(=O)C1(C)CN(S(=O)(=O)c2ccccc2)CC(=O)N1c1cccc(F)c1` (stereo not drawn), for which the RP-LC retention time came to 953 s.

Turning to `Cc1ccc(-c2ccc(N3CCCC(C(=O)NCCC4=CCCCC4)C3)nn2)cc1` (stereo not drawn), the RP-LC retention time worked out at 855 s.

In turn, `O=C(CN1C(=O)CCCc2cc(S(=O)(=O)N3CCCCCC3)ccc21)Nc1ccccc1F` registered an RP-LC retention time of 953 s.

The compound `CC(C)CN(C1CCOCC1)C1CN(C(=O)c2cnccn2)C1` came in with an RP-LC retention time of 556 s.

`O=S(=O)(NCCc1csc(-c2cccc(F)c2)n1)c1ccccc1Cl` showed an RP-LC retention time of 989 s.

`CCCN1C(=O)COc2ccc(-c3noc(-c4ccc(OC)cc4OC)n3)cc21` had an RP-LC retention time of 1100 s.

Take `Cc1ccc(C)c(CNS(=O)(=O)c2c(C)sc(C)c2-c2n[nH]c(C)c2C)c1`: the RP-LC retention time came to 1150 s.

`COCCCn1cc(C(=O)N2CCCC2)c2nn(-c3ccccc3)c(=O)c-2c1` registered an RP-LC retention time of 647 s.

Compound `COc1ccc(-c2noc(CN3C(=O)COc4cc(C)ccc43)n2)cc1OC` gave an RP-LC retention time of 954 s.

Regarding `Cc1ccc(Cl)cc1NC(=O)C1CCN(S(=O)(=O)c2ccc3c(c2)NC(=O)C(C)O3)CC1` (stereo not drawn), the RP-LC retention time was determined as 834 s.

On to `COc1ccc(CNC(=O)c2cn3ccccc3n2)cc1OC`, for which the RP-LC retention time amounted to 605 s.

With `CCCNS(=O)(=O)c1cc2n(c1)CCCN(CC)C2=O`, the RP-LC retention time was determined as 642 s.

`CCOc1ccc(/C=C2\NC(=S)NC2=O)cc1` displayed an RP-LC retention time of 840 s.

Regarding `Cc1ccc2c(c1)OCC(=O)N2Cc1nc(-c2ccc3c(c2)OCO3)no1`, the RP-LC retention time is 1030 s.

Consider `COc1ccccc1CCN1CC(=O)N(c2ccc(C)c(C)c2)[C@@H]2CS(=O)(=O)C[C@@H]21`, for which the RP-LC retention time turned out to be 897 s.

As for `Cn1c(=O)c2cc(C(=O)Nc3ccc(F)c(F)c3)cnc2n(-c2ccccc2)c1=O`, the RP-LC retention time is 937 s.

For `Cc1cc(C)cc(NC(=O)NCc2ccnc(N3CCSCC3)c2)c1`, the RP-LC retention time worked out at 660 s.

For the compound `Cc1csc(-c2cc(S(=O)(=O)Nc3cc(F)ccc3Cl)cn2CC(=O)N2CCCC2)n1`, the RP-LC retention time is 957 s.

Regarding `COc1cc(C(CC(=O)N2CCCCCC2)N2Cc3ccccc3C2=O)cc(OC)c1OC` (stereo not drawn), the RP-LC retention time came out at 797 s.

Consider `Cc1c(C(=O)NCc2c(F)cccc2F)c(C(F)(F)F)nn1C(C)C`, for which the RP-LC retention time was determined as 867 s.

`CCOc1ccc(-c2csc(C)n2)cc1S(=O)(=O)Nc1ccc(OC)cc1` came in with an RP-LC retention time of 940 s.

`O=C(c1ccc(OCC2CCCN(C(=O)c3ccco3)C2)cc1)N1CCOCC1` (stereo not drawn) displayed an RP-LC retention time of 712 s.

The compound `Cc1nc(-c2noc(-c3ccccc3)n2)cn1CC(=O)NCc1cccc(Cl)c1` had an RP-LC retention time of 866 s.

For `O=C(NC1CCOCC1)c1ccc(-c2cc(-c3cn[nH]c3-c3ccccn3)ccn2)cc1`, the RP-LC retention time came out at 617 s.

On to `Cc1ccc(C(=O)N2CCN(c3nnc4cccc(C)n34)CC2)cc1C`, for which the RP-LC retention time amounted to 705 s.

`CS(=O)(=O)c1ccccc1C(=O)Nc1c2c(nn1-c1nc3ccccc3s1)CCC2` showed an RP-LC retention time of 1060 s.

As to `CCn1cc(S(=O)(=O)Nc2ccc(F)cc2Cl)c2cccnc21`, the RP-LC retention time is 870 s.

Turning to `Cc1ccc(-c2nc3ncccn3c2NC(=O)c2cccc(C(F)(F)F)c2)cc1`, the RP-LC retention time amounted to 838 s.

The compound `Cc1sc2ncnc(N3CCCC(C)C3)c2c1C(=O)Nc1cc(F)c(F)cc1F` (stereo not drawn) displayed an RP-LC retention time of 858 s.

Take `COc1ccc2c(c1)C1(CCN(S(=O)(=O)c3ccc4c(c3)oc(=O)n4C)C1)C(=O)N2` (stereo not drawn): the RP-LC retention time was found to be 746 s.

In the case of `CCOc1ccccc1C1NC(=O)N(CC(=O)NC2CCCCC2)C2=C1C(=O)OC2` (stereo not drawn), the RP-LC retention time stood at 722 s.

As for `Cc1cc(N2CCCCC2)n2nc(CN3CCC4(CC3)OCCO4)nc2n1`, the RP-LC retention time turned out to be 580 s.

In the case of `COc1ccc(CCNC(=O)Cn2nc3c(Oc4ccccc4)nccn3c2=O)cc1OC`, the RP-LC retention time stood at 700 s.

For the compound `COc1ccccc1C(=O)N1CCC2(C1)C(=O)Nc1ccccc12` (stereo not drawn), the RP-LC retention time is 672 s.

`O=C(CCc1nc2ccccc2s1)N1CCC(c2noc(-c3ccccn3)n2)C1` (stereo not drawn): the RP-LC retention time was 755 s.

`CCN1C(=O)COc2ccc(-c3noc(-c4ccc(C(F)(F)F)cc4)n3)cc21` registered an RP-LC retention time of 1260 s.

With `CCC(C)(C)C(=O)N1CC(c2nc(-c3ccccc3)no2)C2(CCOCC2)C1` (stereo not drawn), the RP-LC retention time came out at 553 s.

`COc1ccc(OC)c(-c2csc(-c3nnn(-c4ccccc4)c3N)n2)c1`: the RP-LC retention time worked out at 1080 s.

`COc1ccc(CNC(=O)C2CCCN2S(=O)(=O)c2cc3c(cc2Cl)NC(=O)CO3)cc1` (stereo not drawn): the RP-LC retention time worked out at 745 s.

On to `COc1cc(NC(=O)Cn2c(=O)nc(N3CCCC(C)C3)c3ccccc32)cc(OC)c1` (stereo not drawn), for which the RP-LC retention time came out at 838 s.

The compound `COc1ccc(NC(=O)Cn2c(=O)n(-c3ccccc3)c(=O)c3c2cc(C)n3C)cc1` returned an RP-LC retention time of 766 s.

`CC(C)Cn1cnc2c(-c3ccc(F)cc3)csc2c1=O` came in with an RP-LC retention time of 1030 s.

`Cc1ccccc1NC(=O)N(C)CC1CCOCC1`: the RP-LC retention time was determined as 726 s.

`Cc1ccc(C(C)NC(=O)c2nnc(-c3ccc(S(=O)(=O)N(C)C)cc3)o2)c(C)c1` (stereo not drawn) returned an RP-LC retention time of 984 s.

In turn, `CCn1cc(CN2CCC(C(=O)NCc3cccc(Cl)c3)CC2)c2cc(OC)ccc21` registered an RP-LC retention time of 744 s.

Turning to `O=C(Cn1nc(C2CC2)cc1C(=O)N1CCCC1)Nc1ccc(F)c(F)c1`, the RP-LC retention time is 789 s.

The compound `COc1ccc(NC(=O)N2CCN(c3cc(-c4ccc(OC)c(OC)c4)ncn3)CC2)cc1OC` registered an RP-LC retention time of 620 s.

In turn, `O=C(c1nc(-c2cccs2)cs1)N1CCCC1` came in with an RP-LC retention time of 935 s.

For `O=C(c1cncc(Br)c1)N1CCCC(c2nnc(-c3ccccc3)o2)C1` (stereo not drawn), the RP-LC retention time was 777 s.

Take `O=C(NCCc1ccccc1)N1CCCC(Cn2cnc3cccnc32)C1` (stereo not drawn): the RP-LC retention time was 635 s.

For the compound `Cc1cccc(N2CCN(C(=O)c3ccc(-c4csc(C5CC5)n4)cc3)CC2C)c1` (stereo not drawn), the RP-LC retention time stood at 1120 s.

`O=C(NC1CCCN(c2cc(N3CCCC3)ncn2)C1)c1ccoc1` (stereo not drawn) displayed an RP-LC retention time of 671 s.

On to `Cc1cc(C)cc(NS(=O)(=O)c2cc(-c3[nH]ncc3C(=O)N(C)C)oc2C)c1`, for which the RP-LC retention time was 718 s.

Compound `CCCOc1ccc(Br)cc1-c1cc(-c2ccc(Cl)cc2)[nH]c1-c1ccncc1` had an RP-LC retention time of 1040 s.

In turn, `CCOc1ccc(C(C)NC(=O)c2nnc(-c3ccc(S(=O)(=O)N(C)C)cc3)o2)cc1` (stereo not drawn) registered an RP-LC retention time of 923 s.

With `CCOc1ccccc1C(=O)N1CCN(c2cc(-c3cccs3)[nH]n2)CC1`, the RP-LC retention time turned out to be 781 s.

For `O=c1ccc(N2CCCN(S(=O)(=O)c3ccc(F)cc3)CC2)nn1-c1ccccc1`, the RP-LC retention time is 846 s.

`O=C(Cn1cccc1-c1nc(-c2ccc3c(c2)OCO3)no1)Nc1ccc(F)c(F)c1` returned an RP-LC retention time of 1100 s.

For `O=C(Cn1nc(C(=O)N2CCCC2)c2ccccc21)Nc1cccc(Cl)c1`, the RP-LC retention time came out at 875 s.

`Cc1ccc(-n2c(=O)c3sccc3n(Cc3nc(-c4cccc(Br)c4)no3)c2=O)cc1` gave an RP-LC retention time of 1110 s.

Compound `COc1ccc(-c2noc(C3CCCN3C(=O)c3sccc3C)n2)cc1` (stereo not drawn) came in with an RP-LC retention time of 984 s.

In the case of `Cc1ccccc1Nc1c(-c2ccc(N(C)C)cc2)nc2cnccn12`, the RP-LC retention time stood at 833 s.

The compound `O=C(CNS(=O)(=O)c1ccc(F)cc1)N1CCCC1c1nc(-c2ccc(Cl)cc2)no1` (stereo not drawn) returned an RP-LC retention time of 990 s.

For `COCC1(O)CCOC2(CCN(Cc3ccccc3C)CC2)C1` (stereo not drawn), the RP-LC retention time turned out to be 591 s.

On to `COc1ccc(-c2cn3c(CC(=O)Nc4ccccc4)csc3n2)cc1OC`, for which the RP-LC retention time turned out to be 702 s.

The compound `CCS(=O)(=O)Nc1ccc2nc(N3CCN(c4cc(C)ccc4C)CC3)cc(C(=O)O)c2c1` gave an RP-LC retention time of 607 s.

Compound `CNC(=O)c1c(NC(=O)COc2ccccc2)sc2c1CCC2` displayed an RP-LC retention time of 1020 s.

For the compound `COc1cccc(CN2CCC(Oc3ccccc3-c3nc(-c4cnccn4)no3)C2)n1` (stereo not drawn), the RP-LC retention time stood at 702 s.

`CCOc1ccc(NC(=O)N2CCCC(C)(C(=O)NCc3ccccc3)C2)cc1` (stereo not drawn) registered an RP-LC retention time of 859 s.

As for `CCCN(CCC)[C@@H]1CCc2ccc(O)cc2C1`, the RP-LC retention time worked out at 671 s.

The compound `COc1ccc(CN2C(=O)c3ccccc3C2C(=O)NC2CCCC2)c(OC)c1` (stereo not drawn) displayed an RP-LC retention time of 848 s.

Regarding `COC(=O)Cn1c2ccc(F)cc2c2nc3ccccc3nc21`, the RP-LC retention time was 658 s.

`O=C(N[C@@H]1CN(c2ncccn2)C[C@H]1CO)c1ccc2c(c1)OCO2` returned an RP-LC retention time of 606 s.

`CCc1nc(NCc2ccccn2)ncc1C(=O)O` came in with an RP-LC retention time of 557 s.
